Test results from US12357695B2, “Peptides and nanoparticles for intracellular delivery of molecules” (AADIGEN, LLC, priority 2019, dated 2025).
Square brackets hold non-standard residues; d marks the D form. Ends that are not written are not given here. Stearyl = stearyl group covalently linked to the N-terminus; Aun = NCCCCCCCCCCC(=O)O; βAla = NCCC(=O)O

What was measured:
293T cells = assay: Cellular delivery of pGL4 plasmid DNA expressing Luciferase, luciferase expression at 72 hrs; type: cell-based; conditions: for reduction of efficiency / luciferase expression in the presence of serum: complexes incubated 3 hrs in 25% serum prior transfection; for reduction of efficiency / luciferase expression in the presence of serum / reduction of efficiency / luciferase expression in heparan sulfate: pGL4 plasmid; for reduction of efficiency / luciferase expression in heparan sulfate: complexes incubated 3 hrs with heparan sulfate prior transfection; for reduction of ADGN-100 efficiency by modification / luciferase expression: 0.15 μg pGL4 plasmid; for reduction of ADGN-100 efficiency by modification: absence of serum or heparan sulfate
Procedure: FIGS. 2A-2C show luciferase expression in 293T cells treated with ADGN-peptide/pGL4 plasmid DNA complexes. 293T cells cultured in 48 well plates were transfected with ADGN-peptide nanoparticles. ADGN-100, ADGN-106, ADGN-100RI, ADGN-106RI, ADGN-100 Stearyl, ADGN-Hydro1, ADGN-Hydro2, ADGN-Hydro3, ADGN-Hydro4, ADGN-Hydro5, and ADGN-Hydro6 containing 0.17 μg pGL4 plasmid DNA were formed in sterile water, diluted in sterile water containing 5% Sucrose. ADGN-peptide nanoparticles were evaluated prior (FIG. 2A) and after filtration with 0.45 μm PES filters (FIG. 2B). FIG. 2C impact of peGylated ADGN-100 on the transfection efficiency. pGL4 luc plasmid (0.15 μg) were associated to ADGN-100 solution containing 5 to 50% of ADGN-100-PEG or to ADGN-100PEG. ADGN/pGL4 plasmid DNA complexes were incubated for 3 hrs in the presence of either 25% serum or heparan sulfate prior transfection. Luciferase expression was monitored 72 hours post transfection and results were reported as RLU (luminescence):mg of protein.
Complex formation with plasmid DNA. The following protocols were used for the transfection of 2-5 106 Cells or Cells at confluency of about 70-80% cultured in 24 well plates. ADGN peptide/plasmid DNA pGL4 particles were prepared at a 20:1 molar ratio of ADGN-Peptide/pGL4. using (0.2 μg). PGL4 plasmid (0.15 μg) was diluted in 20 μl of sterile water (GIBCO) at room temperature. 10 μl Final Peptide Solution was added to obtain a total volume of 20 μl. The volume was adjusted to 50 μl with sterile water and was mixed gently with vortex 1 min low speed and incubated 30 min at room temperature. Then the volume was made up to 100 μl by adding sterile water containing 5% sucrose, and the solution was mixed gently with vortex 1 min low speed and incubate 5 min at 37° C. and then was proceeded to cell transfection.
Transfection protocol. Protocol is reported for 24 well plate format. Cells were cultured in Dulbecco's Modified Eagle's Medium (DMEM), supplemented with 2 mM glutamine, 1% antibiotics (streptomycin 10,000 μg/mL, penicillin, 10,000 IU/mL) and 10% (w/v) foetal calf serum (FCS), at 37° C. in a humidified atmosphere containing 5% CO2. 24 well plates seeded with 150,000 cells the day prior to transfection were grown to 50-60% confluence and set up to be at about 70% confluences at the time of transfection. Before transfection, cells were washed twice with DMEM. Cells were then overlaid with 0.1 ml of ADGN-peptide/cargo complex solution containing 0.25 μg mRNA, 0.15 μg plasmid DNA or 10-25 nM siRNA, mixed gently, and incubated for 10 min at 37° C. 0.2 mL of fresh DMEM, were added and cells were incubated for 20 min at 37° C. 1 mL of complete DMEM containing 15% FCS were then added in order to reach a final FCS concentration of 10%, without removing the overlay of ADGN-peptide/cargo complexes. Cells were returned to the incubator (37° C., 5% CO2) and 72 hrs post transfection.
ADGN-peptides were evaluated for cellular delivery of pGL4 plasmid DNA expressing Luciferase in 293T cells. Luc pGL4 plasmid (0.15 μg) in sterile water (GIBCO) were mixed with ADGN-100, ADGN-100RI, ADGN-106, ADGN-106RI, ADGN-100 Stearyl, ADGN-100Hydro1, ADGN-100Hydro2, ADGN-100Hydro4, ADGN-100Hydro3, ADGN-100Hydro5 and ADGN-100Hydro6. ADGN-peptide/mRNA complexes were filtered with 0.45 μm PES filter. In order to evaluate the stability of the ADGN/pGL4 plasmid complexes in high serum and cell culture conditions, the complexes were incubated for 3 hrs in the presence of either 25% serum or heparan sulfate prior transfection, then 293T cells were transfected and Luciferase expression was monitored at 72 hrs.

mice = assay: In vivo delivery of pGL4 plasmid DNA, intravenous administration, bioluminescence imaging; conditions: 5 μg pGL4 plasmid; for increase of luciferase expression / efficiency relative to ADGN-100: all / different tissues
Procedure: FIGS. 6A-6C show the potency of ADGN-peptide variants for in vivo delivery of Luciferase expressing plasmid pGL4 via intravenous administration in mice. ADGN-peptide/pGL4 particles containing 5 μg plasmid DNA were formed in sterile water, and then diluted in 5% sucrose. Mice received IV injection of 100 μl ADGN-peptide/plasmid complexes. pGL4 Luciferase expression was monitored by bioluminescence imaging after 12 h, 24h, 48h and 72h. […] Results were then expressed as values relative to day 0.
Stable ADGN-peptides/pGL4.11 DNA were evaluated for in vivo delivery of Luciferase mRNA via intravenous and intramuscular administrations. Animals were treated with single dose of pGL4.11 plasmid DNA of 5 μg. via IV and 2.5 μg via intramuscular administration.
pGL4.11 DNA plasmid (5 μg) in sterile water (GIBCO) were mixed with ADGN peptide (sterile water), volume for each sample was adjusted to 100 μl, with sterile water containing 5% Sucrose. Samples were mixed gently with vortex for 1 minute at low speed and incubated for 30 min at room temperature. Samples were filtered on 0.45 μm PES filters prior administration. For IV administration Mice received 100 μl IV injection of either ADGN-106/pGL4, ADGN-100/pGL4, ADGN-100RI/pGL4, ADGN-100-stearyl/PGL4, ADGN-100Hydro1/PGL4, ADGN-100Hydro2/PGL4, ADGN100 Hydro6/PGL4 or ADGN/PGL4 complexes containing 10% or 20% of ADGN-100PEG (3 animals per group). As control, mice from group 3 (2 animals per group) received IV injection of 100 μl of naked pGL4 plasmids (5 μg).
Luciferase expression was monitored by bioluminescence. Bioluminescence imaging was performed after 12, 24, 48 and 72 hrs. Mice received an i.p. injection of 150 μg/g luciferin for noninvasive bioluminescence imaging (IVIS Kinetic; PerkinElmer, Waltham, MA, USA).

Substance	reduction of efficiency / luciferase expression in the presence of serum (293T cells)	reduction of efficiency / luciferase expression in heparan sulfate (293T cells)	luciferase expression and tissues (mice)	reduction of ADGN-100 efficiency by modification (293T cells)	increase of luciferase expression / efficiency relative to ADGN-100 (mice) [fold]	luciferase expression (293T cells)
Ac-GYVS-(G)4-KWRSALWRWRLWRVRSWSR-NH2 (Ac-GYVSGGGGKWRSALWRWRLWRVRSWSR-NH2) [ADGN-100 hydro-2]	do not significantly improved transfection	do not significantly improved transfection	negligible luciferase expression	–	–	–
Ac-GYVS-Aun-KWRSALWRWRLWRVRSWSR-NH2 (Ac-GYVS[Aun]KWRSALWRWRLWRVRSWSR-NH2; SMILES CC(=O)NCC(=O)N[C@@H](Cc1ccc(O)cc1)C(=O)N[C@H](C(=O)N[C@@H](CO)C(=O)NCCCCCCCCCCC(=O)N[C@@H](CCCCN)C(=O)N[C@@H](Cc1c[nH]c2ccccc12)C(=O)N[C@@H](CCCNC(=N)N)C(=O)N[C@@H](CO)C(=O)N[C@@H](C)C(=O)N[C@@H](CC(C)C)C(=O)N[C@@H](Cc1c[nH]c2ccccc12)C(=O)N[C@@H](CCCNC(=N)N)C(=O)N[C@@H](Cc1c[nH]c2ccccc12)C(=O)N[C@@H](CCCNC(=N)N)C(=O)N[C@@H](CC(C)C)C(=O)N[C@@H](Cc1c[nH]c2ccccc12)C(=O)N[C@@H](CCCNC(=N)N)C(=O)N[C@H](C(=O)N[C@@H](CCCNC(=N)N)C(=O)N[C@@H](CO)C(=O)N[C@@H](Cc1c[nH]c2ccccc12)C(=O)N[C@@H](CO)C(=O)N[C@@H](CCCNC(=N)N)C(N)=O)C(C)C)C(C)C) [ADGN-100 hydro-6]	–	–	mainly observed in the liver and at lower level in the lung and the kidney	do not affected	3.4	–
Stearyl-βA-KWRSALWRWRLWRVRSWSR-NH2 (Stearyl-[βAla]KWRSALWRWRLWRVRSWSR-NH2; not fully specified; printed as Stearyl-βA-KWRSALWRWRLWRVRSWSR-NH2) [ADGN-100 Stearyl]	–	–	mainly observed in the liver and at lower level in the lung and the kidney	do not affected	2.7	–
akwllrwlsrwlrwlarwlr ([dA][dK][dW][dL][dL][dR][dW][dL][dS][dR][dW][dL][dR][dW][dL][dA][dR][dW][dL][dR]; also: retro-inverso) [ADGN-106-RI]	–	–	–	–	–	poor luciferase expression
rswsrvrwlrwrwgasrwk ([dR][dS][dW][dS][dR][dV][dR][dW][dL][dR][dW][dR][dW]G[dA][dS][dR][dW][dK]; also: retro-inverso) [ADGN-100-RI]	25%	less than 10%	mainly observed in the liver and at lower level in the lung and the kidney	do not affected	4	–
βAKWRSAGWRWRLW RVRSWSR (AKWRSAGWRWRLWRVRSWSR; N-terminal beta-alanine; VARIANT 1 beta-A) [ADGN-100]	90%	50%	mainly observed in the liver and at lower level in the lung and the kidney	–	–	high level of luciferase expression
βALWRALWRLWRSLWRLLWKA ([βAla]LWRALWRLWRSLWRLLWKA) [ADGN-106]	–	–	no or minimal expression	–	–	poor luciferase expression
